Values quoted from earlier work, collected in patent publication US10251814B2, “Cefuroxime safety delivery system” (CIS PHARMA AG, priority 2011, dated 2019).
Where two headings read alike, the source gives them in different places.

What was measured:
endophthalmitis = conditions: 16,603 patients; cefuroxime 1 mg in 0.1 ml normal saline intracameral at end of surgery; levofloxacin drops prior and subsequent to surgery
[1] = in 48 hours, at room temperature
[2] = system: human corneal endothelial cells; conditions: 24-hour exposure
[3] = 1 mg in 0.1 ml of aqueous solution

For `CO/N=C(\C(=O)N[C@@H]1C(=O)N2C(C(=O)O)=C(COC(N)=O)CS[C@H]12)c1ccco1` [cefuroxime], the “reduction of the risk for endophthalmitis” value (endophthalmitis) is listed as “nearly five fold”, the “hydrolysis rate in aqueous solution” value [1] is listed as “about 10%” and the mean intracameral concentration (after one hour, intracameral administration of 1 mg in 0.1 ml) is listed as 0.756 mg/mL. The mean intracameral concentration (shortly after intracameral administration of 1 mg in 0.1 ml) was 2.742 mg/mL, the “concentration resulting in a significant reduction in cell viability” value [2] was “exceeding 2.75 mg/ml” and the “safety of intracameral administration” value [3] was “has been established”.
